Test systems include OVCAR-4; M14; HOP-92; SF-268; PC-3; CCRF-CEM; ACHN; SNB-75; MCF7; U-251; UACC-62; COLO 205; NCI-H522; T47D; RXF 393; KM12; OVCAR-8; EKVX; SF-539; SR.
Holding throughout (assay): NCI-60 cell line screen, 48 h

Molecules are shown by their SMILES.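 Test compounds were applied to cells in 96-well plates for 48 hours at 5 doses. Here, GI50 denotes the concentration required for 50% inhibition of growth.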 Active and inactive are the calls of the source. Rule as the data show it: active = GI50 up to about 1.1 µM and inactive = higher.

For the compound `Cc1c(Cl)c(S(N)(=O)=O)cc(S(N)(=O)=O)c1NC(=O)c1ccc(Cl)cc1`, the GI50 in the test with OVCAR-4, in the test on M14, in the test on HOP-92, in the test with SF-268, with PC-3 and in the test on CCRF-CEM was > 100 µM (inactive) throughout. The GI50 in the test with ACHN, in the test with SNB-75, in the test on MCF7, in the test with U-251, with UACC-62 and in the test on COLO 205 was > 100 µM (inactive) each time. Besides, the GI50 in the test with NCI-H522, in the test with T47D, in the test with RXF 393, in the test with KM12 and with OVCAR-8 was > 100 µM (inactive) each time.

Turning to `O=P(c1ccccc1)(c1ccccc1)C(NCc1ccccc1)c1ccc(F)cc1` (configuration not stated), the GI50 in the test with OVCAR-4 is 20.3 µM (inactive); in the test with M14, 14.7 µM (inactive); with HOP-92, 12.9 µM (inactive); in the test with SF-268 it was 19.7 µM (inactive); in the test on EKVX, 12.7 µM (inactive); in the test on CCRF-CEM, 16.9 µM (inactive). Also, the GI50 is 13.8 µM (inactive) in the test on ACHN; 23.8 µM (inactive) in the test on SNB-75; 17.7 µM (inactive) in the test with SF-539; 15.6 µM (inactive) in the test on U-251; 13 µM (inactive) with UACC-62; 14.7 µM (inactive) in the test on COLO 205. The GI50 in the test on NCI-H522 was 11.5 µM (inactive); in the test on SR it was 15 µM (inactive); in the test on T47D, 26.5 µM (inactive); in the test on RXF 393, 13.4 µM (inactive); with KM12, 13.2 µM (inactive); in the test with OVCAR-8 it was 19 µM (inactive).

As for `CC(ON1[C@](C)(c2ccccc2)CC[C@@]1(C)c1ccccc1)c1ccccc1` (some centres not stated), the GI50 in the test on OVCAR-4 is 68.4 µM (inactive); with M14 it was 24.2 µM (inactive); with HOP-92, 21.4 µM (inactive); with SF-268 it was 58.5 µM (inactive); in the test with PC-3, 39.2 µM (inactive); in the test with EKVX, 23.8 µM (inactive). For the same compound, the GI50 is 22.7 µM (inactive) in the test on CCRF-CEM; 25.9 µM (inactive) with SNB-75; > 100 µM (inactive) with SF-539; 31 µM (inactive) in the test with U-251; 43.4 µM (inactive) with COLO 205; 15.3 µM (inactive) with NCI-H522. Moreover, the GI50 in the test on T47D is 24.1 µM (inactive); in the test on RXF 393, 20.4 µM (inactive); in the test with KM12, 29.4 µM (inactive); in the test on OVCAR-8 it was 48.2 µM (inactive).

`CCOC(=O)C1=COC(C)(C)CC1=O`: the GI50 in the test on OVCAR-4, in the test on M14, in the test on SF-268, with PC-3, in the test with EKVX and with ACHN was > 100 µM (inactive) in each case. The GI50 in the test on SNB-75, in the test with MCF7, in the test with SF-539, in the test on U-251, with UACC-62 and in the test on COLO 205 was > 100 µM (inactive) in each case. Besides, the GI50 in the test on NCI-H522, with T47D, with RXF 393, in the test on KM12 and in the test on OVCAR-8 was > 100 µM (inactive) each time.

For `C/C(=N\Nc1nc2ccccc2s1)c1ncccn1`, the GI50 is < 0.0194 µM (active) with M14; < 0.0276 µM (active) with HOP-92; 0.0345 µM (active) in the test with SF-268; 0.118 µM (active) in the test on PC-3; < 0.0111 µM (active) with EKVX; 0.1 µM (active) with CCRF-CEM. For the same compound, the GI50 in the test on ACHN was < 0.01 µM (active); in the test on SNB-75 it was 0.617 µM (active); in the test on MCF7, 0.0164 µM (active); in the test on SF-539, 0.0757 µM (active); with U-251, < 0.0196 µM (active); in the test with UACC-62, 0.101 µM (active). The GI50 was < 0.01 µM (active) with COLO 205; 0.0128 µM (active) in the test with NCI-H522; < 0.01 µM (active) in the test on T47D; 1.04 µM (active) in the test with RXF 393; 0.128 µM (active) in the test on KM12; < 0.016 µM (active) in the test with OVCAR-8.

With `CN1N=C(c2ccncc2)OC1c1ccc(Cl)cc1Cl` (configuration not stated), the GI50 was 43.6 µM (inactive) in the test with OVCAR-4; 95.3 µM (inactive) in the test on M14; > 100 µM (inactive) with SF-268; 63.1 µM (inactive) in the test on PC-3; 41.7 µM (inactive) with EKVX; 48.6 µM (inactive) with CCRF-CEM. For the same compound, the GI50 in the test on ACHN was 74.6 µM (inactive); in the test with SNB-75, 12.6 µM (inactive); in the test on MCF7, > 100 µM (inactive); with SF-539 it was 44.5 µM (inactive); with U-251, > 100 µM (inactive); in the test on UACC-62, 22.8 µM (inactive). The GI50 in the test on COLO 205 was 36.1 µM (inactive); in the test with NCI-H522, 72.6 µM (inactive); with T47D, 60.3 µM (inactive); in the test on RXF 393 it was > 100 µM (inactive); in the test with KM12 it was > 100 µM (inactive); in the test on OVCAR-8, > 100 µM (inactive).

Consider `c1cc2c(ncc3cscc32)s1`, for which the GI50 with OVCAR-4, in the test with M14, in the test with HOP-92, with SF-268, with PC-3 and in the test on EKVX was > 100 µM (inactive) in each case. In addition, the GI50 was > 100 µM (inactive) in the test with CCRF-CEM; > 100 µM (inactive) in the test with ACHN; > 52.6 µM (inactive) in the test on SNB-75; > 100 µM (inactive) with MCF7; > 100 µM (inactive) in the test on SF-539; > 87.3 µM (inactive) in the test on U-251. Besides, the GI50 is > 31.6 µM (inactive) in the test with UACC-62; > 100 µM (inactive) with COLO 205; > 100 µM (inactive) in the test on NCI-H522; > 100 µM (inactive) with SR; > 79.3 µM (inactive) with RXF 393; > 100 µM (inactive) in the test with KM12. Moreover, the GI50 in the test on OVCAR-8 is > 100 µM (inactive).

For `C=C1c2nc3ccccc3n2C=C(c2ccc(Cl)cc2)N1c1ccc(OC)cc1`, the GI50 with OVCAR-4 was 6 µM (inactive); with M14, 7.8 µM (inactive); in the test with HOP-92, 10.3 µM (inactive); in the test with PC-3, 15.4 µM (inactive); in the test on EKVX it was 8.51 µM (inactive); in the test on CCRF-CEM, > 100 µM (inactive). Also, the GI50 was 3.56 µM (inactive) in the test with ACHN; 2.67 µM (inactive) in the test with SNB-75; 7.4 µM (inactive) in the test with MCF7; 5.87 µM (inactive) in the test with SF-539; 8.38 µM (inactive) in the test with U-251; 13 µM (inactive) with UACC-62. The GI50 with COLO 205 is 21.8 µM (inactive); in the test with NCI-H522, 4 µM (inactive); in the test on SR it was 11.2 µM (inactive); in the test with RXF 393, 10.1 µM (inactive); in the test on KM12, 6.81 µM (inactive); in the test with OVCAR-8, 4.43 µM (inactive).

As to `CC#CCCCC1(C)CCNC1=S` (configuration not stated), the GI50 in the test on OVCAR-4, in the test on M14, in the test with HOP-92, in the test on SF-268, in the test with PC-3 and with EKVX was > 10 µM (inactive) in each case. Besides, the GI50 with CCRF-CEM, in the test on ACHN, in the test with SNB-75, in the test on MCF7, in the test with SF-539 and in the test with U-251 was > 10 µM (inactive) in each case. Also, the GI50 in the test with NCI-H522, with SR, with RXF 393, in the test on KM12 and with OVCAR-8 was > 10 µM (inactive) in each case.

For `CC(=O)C(=CNc1c(C)n(C)n(-c2ccccc2)c1=O)C(C)=O`, the GI50 in the test with OVCAR-4, in the test on M14, in the test on HOP-92, with PC-3, in the test on EKVX and in the test with CCRF-CEM was > 100 µM (inactive) throughout. In addition, the GI50 in the test on ACHN, with SNB-75, in the test on MCF7, with SF-539, in the test with U-251 and in the test with UACC-62 was > 100 µM (inactive) throughout. The GI50 in the test on COLO 205, with NCI-H522, in the test on SR, in the test with RXF 393, in the test on KM12 and in the test on OVCAR-8 was > 100 µM (inactive) throughout.

For the compound `CC(C)C1=CC2=C(C(=O)C1=O)C13CCCC(C)(C)C1CC2OC3=O` (configuration not stated), the GI50 with OVCAR-4 is 18.6 µM (inactive); with M14, 24 µM (inactive); with HOP-92 it was 19 µM (inactive); in the test with SF-268, 22 µM (inactive); in the test with PC-3 it was 24.2 µM (inactive); in the test on EKVX, 16.2 µM (inactive). Moreover, the GI50 in the test with CCRF-CEM was 3.97 µM (inactive); with ACHN, 19.1 µM (inactive); in the test with SNB-75 it was 25.7 µM (inactive); with MCF7 it was 22.3 µM (inactive); in the test with SF-539 it was 20.7 µM (inactive); in the test with U-251 it was 23 µM (inactive). The GI50 was 13.4 µM (inactive) with UACC-62; 17.2 µM (inactive) with COLO 205; 11.3 µM (inactive) in the test on NCI-H522; 20.4 µM (inactive) in the test with T47D; 31.8 µM (inactive) in the test on KM12; 19.2 µM (inactive) with OVCAR-8.

`Nc1ccc(-c2nn3c(COc4ccc(Cl)cc4)nnc3s2)cc1`: the GI50 in the test on OVCAR-4 is > 100 µM (inactive); in the test with M14, > 100 µM (inactive); in the test on PC-3, 88.7 µM (inactive); in the test on EKVX, 86.9 µM (inactive); in the test with ACHN, > 100 µM (inactive); with SNB-75 it was > 100 µM (inactive). Moreover, the GI50 with U-251 is > 100 µM (inactive); in the test with UACC-62 it was > 100 µM (inactive); with COLO 205, 74.5 µM (inactive); in the test with NCI-H522, 65 µM (inactive); in the test with T47D, > 100 µM (inactive); with RXF 393, 49.3 µM (inactive). The GI50 in the test on OVCAR-8 is > 100 µM (inactive).
